Data reported in patent US12187759B2, “TLR7 agonists” (Primmune Therapeutics, Inc., priority 2019, dated 2025).

Assays:
[1] = test system: hPBMCs (Human Peripheral Blood Mononuclear Cells); test: Induction of interferon-α in hPBMCs in vitro; assay type: cell-based; conditions: Homo sapiens, PBMC; for Emax: 24 h, peak IFNα2a as percentage of peak response of standard 2-Amino-7-(cyclopropylmethyl)-9-B-D-xylofuranosyl-7,9-dihydro-1H-purine-6,8-dione, averaged across donors, read-out: IFNrmax, Relative Maximal IFNα2a Production (%); for minimal effective concentration: minimal effective concentration for interferon-α production (generally at least 80 pg/ml above baseline), geometric mean across at least three donors, 24 hours, read-out: Weighted MEC
Method: Treatment of hPBMCs with a TLR7 agonist typically induces some production of interferon-α as well as lesser amounts of a variety of other cytokines and chemokines. A typical experiment uses hPBMCs isolated from a healthy donor and placed in replicate cell culture wells; typically 1.0-7.5×10^6 cells are placed in each well. A test compound is added and the cells are cultured for 24 hours at 37° C. in a humidified atmosphere containing 5% CO2 post-addition; untreated controls are included. Secreted interferon-α production is measured using an a multisubtype interferon-α ELISA kit like those from PBL Assay Sciences or specifically as IFNα2a as part of a panel of cytokines and chemokines using luminex methodologies.
The minimal effective concentration (MEC) is the minimum concentration in a dose response curve where a significant increase in interferon-α production (generally at least 80 pg/ml) is observed above baseline. MEC values for each compound are determined for at least three donors. The weighted MEC for each compound is the geometric mean of all individual MECs across all donors. Concentrations tested typically consist of a two-fold dilution series starting at 100 μM. In the calculation of weighted MEC, any individual MEC value greater the highest concentration tested is arbitrarily set to two times the highest concentration tested unless all MECs for a compound exceed this value. The maximal amount of IFNα2a for each donor is determined from dose dependence for each compound.
In order to normalize for variation in each hPBMC preparation, these values are first transformed by expressing as a percentage of peak response measured with a standard (2-Amino-7-(cyclopropylmethyl)-9-B-D-xylofuranosyl-7,9-dihydro-1H-purine-6,8-dione) and then averaging the results across all donors, this average referred to as IFNrmax.
IFNmax is the maximum amount of IFN observed at any concentration across the evaluated concentration range. MEC and IFNmax values for three select compound are shown for three donors (Table 3). The range of tested concentrations were 0.625-5 μM for Imiquimod, 3.125-100 μM for both Compound A and Compound 1, 12.5-100 μM for Compound 2.

human TLR7 = target: T1, human TLR7 (Homo sapiens, UniProt Q9NYK1); test: TLR7 reporter cell assay (HEK293 cells stably expressing human TLR7 with NF-κB-driven SEAP reporter); assay type: cell-based; conditions: 15-24 hours; for Emax at 500 µM: HEK293, 500 μM compound, SEAP activity (OD 650 nm) relative to 28.5 μM resiquimod, read-out: Response at 500 μM Compound as a Percent of Resiquimod Response; for EC50: fit of SEAP dose response, ymax from 28.5 μM resiquimod
T1 construct: host or cells: HEK293
T1 sequence (Q9NYK1 27-1049): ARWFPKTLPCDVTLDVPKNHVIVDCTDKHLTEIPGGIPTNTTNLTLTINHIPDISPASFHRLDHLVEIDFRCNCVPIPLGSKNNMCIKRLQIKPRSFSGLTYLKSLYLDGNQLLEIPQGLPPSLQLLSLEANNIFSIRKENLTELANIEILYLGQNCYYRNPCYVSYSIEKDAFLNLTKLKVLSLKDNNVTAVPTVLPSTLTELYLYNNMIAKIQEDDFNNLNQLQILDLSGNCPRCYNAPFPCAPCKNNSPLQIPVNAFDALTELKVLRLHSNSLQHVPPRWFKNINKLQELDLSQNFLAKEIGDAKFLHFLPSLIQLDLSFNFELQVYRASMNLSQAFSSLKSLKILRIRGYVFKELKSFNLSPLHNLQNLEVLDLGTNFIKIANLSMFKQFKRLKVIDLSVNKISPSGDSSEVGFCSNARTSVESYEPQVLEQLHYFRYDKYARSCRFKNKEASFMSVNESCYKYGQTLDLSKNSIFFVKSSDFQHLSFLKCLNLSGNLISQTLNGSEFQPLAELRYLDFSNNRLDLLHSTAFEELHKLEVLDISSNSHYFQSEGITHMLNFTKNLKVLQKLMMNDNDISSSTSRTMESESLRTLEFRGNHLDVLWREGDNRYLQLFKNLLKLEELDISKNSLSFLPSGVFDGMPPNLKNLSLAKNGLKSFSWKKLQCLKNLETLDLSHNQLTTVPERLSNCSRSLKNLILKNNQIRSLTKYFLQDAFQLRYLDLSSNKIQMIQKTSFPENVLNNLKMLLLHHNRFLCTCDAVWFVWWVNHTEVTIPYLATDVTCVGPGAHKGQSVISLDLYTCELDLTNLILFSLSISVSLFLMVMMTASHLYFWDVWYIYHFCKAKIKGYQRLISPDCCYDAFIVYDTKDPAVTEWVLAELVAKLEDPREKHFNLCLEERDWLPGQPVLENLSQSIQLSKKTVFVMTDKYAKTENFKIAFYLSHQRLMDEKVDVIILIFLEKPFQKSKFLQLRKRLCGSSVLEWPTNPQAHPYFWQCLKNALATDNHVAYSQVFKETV
Source text: The engagement of TLRs by cognate ligands triggers downstream signaling cascades, leading to the activation of NF-κB and other transcription factors which initiate various immunomodulatory effects. The human embryonic kidney cell line, HEK293, is essentially non-responsive to TLR agonists, but ectopic expression of TLRs in these cells allows cognate agonists to activate endogenous NF-κB. Accordingly, the HEK293-TLR-NF-κB inducible reporter system is used to assay TLR agonists.
HEK293 cell lines stably expressing human TLR7 or TLR8 together with an NF-κB-driven-secreted alkaline phosphatase (SEAP) reporter were invented at InvivoGen (San Diego, California, USA) and used to assess compounds of the present invention for TLR7 and TLR8 agonist activities. Cells were seeded at 2-5×10^4 cells/well in 96 well plates (200 μl/well) and treated with various concentrations of compound (10 μl) for 15-24 hours. SEAP activity was determined by measuring OD at 650 nm; the media used to culture the cell lines contains the reagents required for SEAP detection. The EC50 values in Table 1 are calculated from fitting the dose response of measured SEAP activity for each compound to the following equation: Y=ymax*c^nh/(EC50^nh+c^nh)+blank where Y is the experimentally measured OD650 at concentration c of test article, blank is the observed OD650 in the absence of TLR7 agonist, ymax is the difference between the measured OD650 in the presence of 28.5 μM resiquimod and the blank and values of EC50 and nh are determined by nonlinear least squares analysis. Resiquimod is a known TLR7 and TLR8 agonist.
Compound A is 5-amino-3-((2R,3R,5S)-3-hydroxy-5-((S)-1-hydroxypropyl)tetrahydrofuran-2-yl)thiazolo[4,5-d]pyrimidine-2,7(3H,6H)-dione)

Structure (SMILES)	Emax [1]	minimal effective concentration [1]	Emax at 500 µM (human TLR7)	EC50 (human TLR7)
C#CCn1c(=O)n([C@@H]2O[C@H]([C@@H](O)CF)C[C@H]2O)c2nc(N)[nH]c(=O)c21 [Compound 24, 2-Amino-9-((2R,3R,5S)-5-((R)-2-fluoro-1-hydroxyethyl)-3-hydroxytetrahydrofuran-2-yl)-7-(prop-2-yn-1-yl)-7,9-dihydro-1H-purine-6,8-dione]	205%	12.5 µM	52%	327 µM
CCCn1c(=O)n([C@@H]2O[C@H]([C@@H](O)C(F)(F)F)C[C@H]2O)c2nc(N)[nH]c(=O)c21 [Compound 25, 2-Amino-9-((2R,3R,5S)-3-hydroxy-5-((R)-2,2,2-trifluoro-1-hydroxyethyl)tetrahydrofuran-2-yl)-7-propyl-7,9-dihydro-1H-purine-6,8-dione]	80%	19.8 µM	74%	324 µM
CCCn1c(=O)n([C@@H]2O[C@H]([C@@H](O)CC)[C@H](F)[C@H]2O)c2nc(N)[nH]c(=O)c21 [Compound 26, 2-Amino-9-((2R,3S,4R,5R)-4-fluoro-3-hydroxy-5-((S)-1-hydroxypropyl)tetrahydrofuran-2-yl)-7-propyl-7,9-dihydro-1H-purine-6,8-dione]	304%	≤ 1.6 µM	59%	269 µM
CC[C@H](O)[C@H]1O[C@@H](n2c(=O)n(CCC(F)(F)F)c3c(=O)[nH]c(N)nc32)[C@H](O)[C@H]1F [Compound 27, 2-Amino-9-((2R,3S,4R,5R)-4-fluoro-3-hydroxy-5-((S)-1-hydroxypropyl)tetrahydrofuran-2-yl)-7-(3,3,3-trifluoropropyl)-7,9-dihydro-1H-purine-6,8-dione]	209%	≤ 1.6 µM	61%	339 µM
Nc1nc2c(c(=O)[nH]1)n(CCC(F)(F)F)c(=O)n2[C@@H]1O[C@H]([C@@H](O)C(F)(F)F)C[C@H]1O [Compound 28, 2-Amino-9-((2R,3R,5S)-3-hydroxy-5-((R)-2,2,2-trifluoro-1-hydroxyethyl)tetrahydrofuran-2-yl)-7-(3,3,3-trifluoropropyl)-7,9-dihydro-1H-purine-6,8-dione]	105%	9.9 µM	47%	519 µM
Nc1nc2c(c(=O)[nH]1)n(CC1CC1)c(=O)n2[C@@H]1O[C@H]([C@@H](O)C(F)(F)F)C[C@H]1O [Compound 29, 2-Amino-7-(cyclopropylmethyl)-9-((2R,3R,5S)-3-hydroxy-5-((R)-2,2,2-trifluoro-1-hydroxyethyl)tetrahydrofuran-2-yl)-7,9-dihydro-1H-purine-6,8-dione]	83%	6.3 µM	79%	201 µM
CCCCn1c(=O)n([C@@H]2O[C@H]([C@@H](O)CC)[C@H](F)[C@H]2O)c2nc(N)[nH]c(=O)c21 [Compound 30, 2-Amino-7-butyl-9-((2R,3S,4R,5R)-4-fluoro-3-hydroxy-5-((S)-1-hydroxypropyl)tetrahydrofuran-2-yl)-7,9-dihydro-1H-purine-6,8-dione]	347%	1.6 µM	87%	94 µM
CCCCn1c(=O)n([C@@H]2O[C@H]([C@@H](O)C(F)(F)F)C[C@H]2O)c2nc(N)[nH]c(=O)c21 [Compound 31, 2-Amino-7-butyl-9-((2R,3R,5S)-3-hydroxy-5-((R)-2,2,2-trifluoro-1-hydroxyethyl)tetrahydrofuran-2-yl)-7,9-dihydro-1H-purine-6,8-dione]	71%	6.3 µM	78%	210 µM
CC[C@H](O)[C@@H]1C[C@@H](O)[C@H](n2c(=O)n(CCO)c3c(=O)[nH]c(N)nc32)O1 [Compound 32, 2-Amino-9-((2R,3R,5S)-3-hydroxy-5-((S)-1-hydroxypropyl)tetrahydrofuran-2-yl)-7-(2-hydroxyethyl)-7,9-dihydro-1H-purine-6,8-dione]	223%	7.9 µM	68%	339 µM
C#CC[C@H](O)[C@@H]1C[C@@H](O)[C@H](n2c(=O)n(CC#C)c3c(=O)[nH]c(N)nc32)O1 [Compound 35, 2-Amino-9-((2R,3R,5S)-3-hydroxy-5-((S)-1-hydroxybut-3-yn-1-yl)tetrahydrofuran-2-yl)-7-(prop-2-yn-1-yl)-7,9-dihydro-1H-purine-6,8-dione]	207%	3.1 µM	91%	114 µM
C#CCn1c(=O)n([C@@H]2O[C@H](C(=O)OC)C[C@H]2O)c2nc(N)[nH]c(=O)c21 [Compound 39, Methyl (2S,4R,5R)-5-(2-amino-6,8-dioxo-7-(prop-2-yn-1-yl)-1,6,7,8-tetrahydro-9H-purin-9-yl)-4-hydroxytetrahydrofuran-2-carboxylate]	≤ 10%	> 50 µM	< 5%	
C#CCn1c(=O)n([C@@H]2O[C@H](C(=O)O)C[C@H]2O)c2nc(N)[nH]c(=O)c21 [Compound 40, (2S,4R,5R)-5-(2-Amino-6,8-dioxo-7-(prop-2-yn-1-yl)-1,6,7,8-tetrahydro-9H-purin-9-yl)-4-hydroxytetrahydrofuran-2-carboxylic acid]	≤ 10%	> 50 µM	< 5%	
